The values below come from PMC7588913, “A Peptide Found in Human Serum, Derived from the C-Terminus of Albumin, Shows Antifungal Activity In Vitro and In Vivo” (Microorganisms, 2020).

Read-outs that look alike come from different tables or passages of the source. Where a SMILES comes first, the peptide text is derived from it.

One data set has as its system LLC-MK2 cells. In kind it is cell-based, Rhesus monkey. The protocol:
(§1) The hemolytic and cytotoxic activity of the selected peptides (25, 50 and 100 μM) was evaluated as previously described. For the evaluation of hemolytic activity, peptides were added to human erythrocytes (blood group 0 Rh+, final concentration, 2.5% v/v) and hemoglobin release was estimated after 30 and 120 min incubation by measuring the absorbance of the supernatant at 540 nm. Erythrocytes suspended in phosphate buffered saline (PBS) and Triton 1% were the controls for zero (blank) and 100% hemolysis, respectively. Cytotoxicity against Rhesus monkey kidney epithelial cells (LLC-MK2 line) treated with peptides for 24 h was assessed after resazurin addition by measuring fluorescence intensity at 572 nm. Cells in medium without peptide served as control (100% viability). Each assay was carried out in duplicate and at least 2 independent replicates were performed for each experiment.
(§2) Data are reported as the mean ± SD. Statistical significance was assessed by t test, p < 0.05 was considered significant.

A further data set concerns Galleria mellonella. Kind of data set: In vivo toxicity in Galleria mellonella larvae. The conditions noted are these: K13L 33.33 mg/kg into the haemocoel, 37 °C, monitored 9 days, Mantel–Cox log-rank test. The procedure:
The potential therapeutic activity of K13L was evaluated by the G. mellonella model of experimental candidiasis, according to a previously described procedure. To preliminarily evaluate in vivo toxicity, a solution of K13L (33.33 mg/kg) was inoculated directly into the haemocoel, via the last left pro-leg, in larvae at their final instar stage (body weight, 300 ± 20 mg, 10 μL/larva). Larvae inoculated with 10 μL of saline solution and untouched larvae served as controls. All animals were incubated at 37 °C in the dark and monitored daily for survival for 9 days. For the evaluation of therapeutic activity, larvae (16/group) were challenged with C. albicans SC5314 (5 × 10^5 yeast cells/larva, 10 μL) via the last left pro-leg. A solution of K13L (16.66 mg/kg,) or saline (control) was injected 60 min later, via the last right proleg (10 μL). Larvae were monitored daily for 9 days after infection. The log rank (Mantel–Cox) test was used to compare survival curves by Graph Pad Prism software.

For a further data set, the system named is C. albicans SC5314. Kind of data set: Colony forming unit (CFU) candidacidal assay. It counts as cell-based, Candida albicans. The following applies: 100 μg/mL vs reference strain C. albicans SC5314, CFU assay. The procedure:
The fungicidal activity of the selected peptides was evaluated in vitro by a previously described colony forming unit (CFU) assay. All peptides were preliminarily tested at the concentration of 100 μg/mL vs. the reference strain C. albicans SC5314. […] After incubation at 37 °C for 6 h in the presence or absence (control growth) of the peptides, fungal cell suspensions (approximately 500 cells/100 μL of distilled water) were spread on Sabouraud Dextrose agar plates. After incubation at 30 °C for 48–72 h, CFUs were enumerated. Each assay was carried out in triplicate and at least 2 independent experiments were performed for each condition. EC50 values were calculated by nonlinear regression analysis using Graph Pad Prism 4.01 software, San Diego, CA, USA. Time kinetics of K13L-mediated killing against the reference C. albicans strain was determined by CFU assays, as described above, after incubation of yeast cells for 30 min, 1, 2, 4 and 6 h with K13L at different concentrations.

The test system of a further data set is human erythrocytes. In kind it is cell-based. The protocol: as §1, §2

In the case of `CC(C)C[C@H](NC(=O)CNC(=O)[C@H](CC(C)C)NC(=O)[C@H](C)NC(=O)[C@H](C)NC(=O)[C@H](CCC(N)=O)NC(=O)[C@H](CO)NC(=O)[C@H](C)NC(=O)[C@H](C)NC(=O)[C@@H](NC(=O)[C@H](CC(C)C)NC(=O)[C@H](CCCCN)NC(=O)[C@@H](N)CCCCN)C(C)C)C(=O)O` [Peptide K13L] (H-KKLVAASQAALGL-OH), the figures for the “Cell Viability (%)” value with LLC-MK2 cells (25 µM), in the data set on LLC-MK2 cells (50 µM) and in the data set with LLC-MK2 cells (100 µM) were 105.95 ± 1.47%, 105.04 ± 0.20% and 101.26 ± 0.38%, respectively. In the data set with Galleria mellonella, the “Survival of larvae vs saline-inoculated larvae (in vivo toxicity)” value was “No significant difference in survival”.
Consider `CC(C)C[C@H](NC(=O)[C@H](Cc1ccccc1)NC(=O)[C@H](CC(=O)O)NC(=O)CNC(=O)[C@H](CCC(=O)O)NC(=O)CNC(=O)[C@H](CO)NC(=O)[C@@H](N)CC(=O)O)C(=O)N[C@@H](C)C(=O)N[C@@H](CCC(=O)O)C(=O)NCC(=O)NCC(=O)NCC(=O)N[C@H](C(=O)N[C@@H](CCCNC(=N)N)C(=O)O)C(C)C` [Peptide D15R] (H-DSGEGDFLAEGGGVR-OH; N-terminus and C-terminus assumed), for which the “Fungicidal activity in preliminary assay” value in the data set with C. albicans SC5314 was “no activity”. In addition, the “Cell Viability (%)” value is given as 101.32 ± 1.92% in the data set on LLC-MK2 cells (25 µM), 101.25 ± 0.19% in the data set on LLC-MK2 cells (50 µM) and 103.00 ± 1.49% in the data set with LLC-MK2 cells (100 µM).
As for `CC[C@H](C)[C@H](NC(=O)[C@H](CCCCN)NC(=O)[C@H](CO)NC(=O)CNC(=O)[C@H](CC(C)C)NC(=O)[C@H](CO)NC(=O)[C@H](Cc1ccccc1)NC(=O)[C@H](CCC(N)=O)NC(=O)[C@H](CC(C)C)NC(=O)[C@H](CCC(=O)O)NC(=O)[C@H](CCC(=O)O)NC(=O)[C@H](CCC(=O)O)NC(=O)[C@H](CC(C)C)NC(=O)CN)C(=O)N[C@@H](CC(N)=O)C(=O)N[C@H](C(=O)N[C@@H](CCCCN)C(=O)O)C(C)C` [Peptide G17K] (H-GLEEELQFSLGSKINVK-OH), the “Hemolysis (%)” value in the data set on human erythrocytes (25 µM) was determined as 0.00%. In addition, the “Cell Viability (%)” value in the data set with LLC-MK2 cells (25 µM) was determined as 99.07 ± 1.57%; in the data set with LLC-MK2 cells (50 µM) it was 99.73 ± 0.45%; in the data set on LLC-MK2 cells (100 µM), 99.07 ± 1.57%.
Consider `CC(C)[C@H](NC(=O)[C@@H](NC(=O)[C@H](Cc1ccccc1)NC(=O)CNC(=O)[C@H](CCC(=O)O)NC(=O)[C@H](CC(N)=O)NC(=O)[C@H](CCC(=O)O)NC(=O)[C@H](CCCCN)NC(=O)[C@@H](NC(=O)[C@H](CCC(=O)O)NC(=O)[C@H](CCC(=O)O)NC(=O)[C@@H](N)CO)[C@@H](C)O)[C@@H](C)O)C(=O)N[C@H](C(=O)N[C@@H](C)C(=O)N[C@@H](CCC(=O)O)C(=O)NCC(=O)N[C@@H](CCCCN)C(=O)O)[C@@H](C)O` [Peptide S17K] (H-SEETKENEGFTVTAEGK-OH; N-terminus and C-terminus assumed), for which, in the data set with human erythrocytes (25 µM), the “Hemolysis (%)” value was determined as 0.00%. Further, the “Fungicidal activity in preliminary assay” value with C. albicans SC5314 is recorded as “no activity”. Also, the entries for the “Cell Viability (%)” value in the data set on LLC-MK2 cells (25 µM), with LLC-MK2 cells (50 µM) and in the data set with LLC-MK2 cells (100 µM) were 103.47 ± 2.00%, 102.69 ± 1.37% and 101.73 ± 1.82%, respectively.
Consider `C[C@H](NC(=O)[C@H](CCC(=O)O)NC(=O)[C@H](CO)NC(=O)CNC(=O)[C@H](C)NC(=O)[C@H](CCC(=O)O)NC(=O)[C@@H](N)CC(=O)O)C(=O)N[C@@H](CC(=O)O)C(=O)N[C@@H](Cc1c[nH]cn1)C(=O)N[C@@H](CCC(=O)O)C(=O)NCC(=O)N[C@H](C(=O)N[C@@H](Cc1c[nH]cn1)C(=O)N[C@@H](CO)C(=O)N[C@H](C(=O)O)[C@@H](C)O)[C@@H](C)O` [Peptide D15T] (H-DEAGSEADHEGTHST-OH; N-terminus and C-terminus assumed), for which the “Hemolysis (%)” value in the data set on human erythrocytes (25 µM) and in the data set with human erythrocytes (50 µM) was 0.00% throughout. Further, the “Fungicidal activity in preliminary assay” value with C. albicans SC5314 is “no activity”. Also, the “Cell Viability (%)” value with LLC-MK2 cells (25 µM) came to 108.50 ± 0.92%; in the data set on LLC-MK2 cells (50 µM), 107.55 ± 1.48%; in the data set with LLC-MK2 cells (100 µM), 108.50 ± 5.15%.
